Test results: ChEMBL document CHEMBL1201862, “PubChem BioAssay data set” (2004)
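96-well plates; 48 h exposure; 5 concentrations. Endpoints by linear interpolation between flanking doses. Not reached: highest tested concentration assigned. At the GI50, growth is halved.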 Activity calls are given as the source filed them. No stated cut-off is given here; in the data, active = GI50 up to about 1.1 µM and inactive = higher. *1 amine or outer side, *2 acyl side, *3 side chain or, on linkers, in order; H or OH if unused. Where a SMILES comes first, the peptide text is derived from it. Bridges are numbered along the chain shown (N, C = ends). [ ]: non-standard residue; d: D form. The star is where a group is joined. X56 = CC(C)C(C)C(C(=O)[*:2])N(C)[*:1]; Picolinoyl(3-OH) = O=C(c1ncccc1O)*; NMePhg = CN[CH](C(=O)O)c1ccccc1; Hyp = O=C(O)[CH]1C[CH](O)CN1; Sar = CNCC(=O)O

Columns and labels:
Assay in all cases: NCI-60 cell line screen, 48 h
[1] = tested on: HL-60
[2] = tested on: OVCAR-4
[3] = tested on: UACC-62
[4] = tested on: SF-295
[5] = tested on: UO-31
[6] = tested on: SK-MEL-5
[7] = tested on: 786-0
[8] = tested on: CCRF-CEM
[9] = tested on: SK-MEL-2
[10] = tested on: SF-268
[11] = tested on: A498
[12] = tested on: MOLT-4
[13] = tested on: A549
[14] = tested on: NCI-H226
[15] = tested on: COLO 205
[16] = tested on: EKVX
[17] = tested on: NCI-H23
[18] = tested on: MDA-MB-435
[19] = tested on: MCF7

Structure (SMILES)	GI50 [1]	GI50 [2]	GI50 [3]	GI50 [4]	GI50 [5]	GI50 [6]	GI50 [7]	GI50 [8]	GI50 [9]	GI50 [10]	GI50 [11]	GI50 [12]	GI50 [13]	GI50 [14]	GI50 [15]	GI50 [16]	GI50 [17]	GI50 [18]	GI50 [19]
COc1ccc(-c2ccc(CC(=O)O)cc2)cc1OC	> 100 µM (inactive)	> 100 µM (inactive)	> 100 µM (inactive)	> 100 µM (inactive)	> 100 µM (inactive)	> 100 µM (inactive)	> 100 µM (inactive)	> 100 µM (inactive)	> 100 µM (inactive)	> 100 µM (inactive)	> 100 µM (inactive)	> 100 µM (inactive)	> 100 µM (inactive)	> 100 µM (inactive)	> 100 µM (inactive)	> 100 µM (inactive)	> 100 µM (inactive)		
CC1C(c2ccc(N(C)C)cc2)c2cc3c(cc2OC1N1CCCC1)OCO3 (configuration not stated)	28 µM (inactive)	> 100 µM (inactive)	46.1 µM (inactive)	32.1 µM (inactive)	30.8 µM (inactive)	30.6 µM (inactive)	43 µM (inactive)	36 µM (inactive)	30.5 µM (inactive)	66.8 µM (inactive)	20.7 µM (inactive)	48.8 µM (inactive)	45.3 µM (inactive)		45 µM (inactive)	64.6 µM (inactive)	58.3 µM (inactive)	16.6 µM (inactive)	24.3 µM (inactive)
COC1/C=C\C=C(/C)C(=O)NC2=CC(=O)C=C(C2=O)C(OC)C(C)CC(OC)C(OC)C(C)/C=C(/C)C1OC(N)=O (configuration not stated)	0.132 µM (active)	8.26 µM (inactive)	0.76 µM (active)	20.6 µM (inactive)	16.4 µM (inactive)	4.35 µM (inactive)		0.278 µM (active)	2.31 µM (inactive)	11.5 µM (inactive)	15.1 µM (inactive)	0.214 µM (active)	16.7 µM (inactive)	21.8 µM (inactive)	0.084 µM (active)	1.97 µM (inactive)	1.7 µM (inactive)		1.28 µM (inactive)
NC1=NN(c2ccccc2)C(=O)C1C(=O)C(=O)Nc1ccc(Cl)cc1 (configuration not stated)	> 100 µM (inactive)	> 100 µM (inactive)	> 100 µM (inactive)	> 100 µM (inactive)	> 100 µM (inactive)	> 100 µM (inactive)	> 100 µM (inactive)	> 100 µM (inactive)	> 100 µM (inactive)	> 100 µM (inactive)	> 100 µM (inactive)	> 100 µM (inactive)	> 100 µM (inactive)	> 100 µM (inactive)	> 100 µM (inactive)	> 100 µM (inactive)	> 100 µM (inactive)		
CSCC[C@@H]1C(=O)N(C)[C@H](C(C)(C)C)N1C(=O)c1ccccc1	> 100 µM (inactive)	> 100 µM (inactive)	> 100 µM (inactive)	> 100 µM (inactive)	> 100 µM (inactive)	> 100 µM (inactive)		> 100 µM (inactive)	> 100 µM (inactive)	> 100 µM (inactive)	> 100 µM (inactive)	> 100 µM (inactive)	> 100 µM (inactive)	> 100 µM (inactive)	> 100 µM (inactive)	> 100 µM (inactive)	> 100 µM (inactive)		> 100 µM (inactive)
CC(C)CC1NC(=O)C(NC(=O)c2ncccc2O)C(C)OC(=O)C(c2ccccc2)N(C)C(=O)C(C)NC(=O)C(C(C)C(C)C)N(C)C(=O)CN(C)C(=O)C2CC(O)CN2C1=O (configuration not stated) ({Picolinoyl(3-OH)}-TL[Hyp][Sar][X56]A[NMePhg]; ester 1-C; configuration not given here)	58.9 µM (inactive)	66.5 µM (inactive)	45.1 µM (inactive)	85.7 µM (inactive)	> 85.5 µM (inactive)	24.3 µM (inactive)		60.5 µM (inactive)	38.7 µM (inactive)	51.3 µM (inactive)	> 107 µM (inactive)	43.2 µM (inactive)	52.6 µM (inactive)	71.1 µM (inactive)	80.2 µM (inactive)	10.1 µM (inactive)	58.6 µM (inactive)		13.7 µM (inactive)
ClC1CCC2OOC1O2 (configuration not stated)	32.2 µM (inactive)	> 100 µM (inactive)	89.1 µM (inactive)	> 100 µM (inactive)	> 100 µM (inactive)	> 100 µM (inactive)	> 100 µM (inactive)	54 µM (inactive)	> 100 µM (inactive)	> 100 µM (inactive)	> 100 µM (inactive)	> 100 µM (inactive)	> 100 µM (inactive)	> 100 µM (inactive)	> 100 µM (inactive)	> 100 µM (inactive)	> 100 µM (inactive)		
CC1=C[C@]2(O)C(=O)[C@H](C)C[C@H]3[C@@H](CC[C@@](C)(O)/C=C\2C1=O)C3(C)C	> 100 µM (inactive)	23.6 µM (inactive)	16 µM (inactive)	24.5 µM (inactive)	62.5 µM (inactive)	21.6 µM (inactive)	18.9 µM (inactive)	24.8 µM (inactive)	17.9 µM (inactive)	20.7 µM (inactive)	27.4 µM (inactive)	17.9 µM (inactive)	35.5 µM (inactive)	33.7 µM (inactive)	16.7 µM (inactive)	70.5 µM (inactive)	25.6 µM (inactive)		
CCCNC(=O)Nc1c([N+](=O)[O-])cc(C(F)(F)F)cc1[N+](=O)[O-]	24.5 µM (inactive)	20.3 µM (inactive)	37.3 µM (inactive)	84.9 µM (inactive)	> 100 µM (inactive)	28.4 µM (inactive)	> 100 µM (inactive)	> 100 µM (inactive)	> 100 µM (inactive)	> 100 µM (inactive)	> 100 µM (inactive)	> 100 µM (inactive)	58.6 µM (inactive)	> 100 µM (inactive)	> 10 µM (inactive)	> 100 µM (inactive)	43 µM (inactive)		
CC1=CCC2(C#N)CCC1C2O (configuration not stated)	> 100 µM (inactive)	> 100 µM (inactive)	> 100 µM (inactive)	> 100 µM (inactive)	> 100 µM (inactive)	> 100 µM (inactive)	64.1 µM (inactive)	> 100 µM (inactive)	> 100 µM (inactive)	> 100 µM (inactive)	> 100 µM (inactive)	> 100 µM (inactive)	> 100 µM (inactive)	> 100 µM (inactive)	> 100 µM (inactive)	> 100 µM (inactive)			
NNC(=O)/C(NC(=O)c1ccccc1)=C(\N)c1cccc([N+](=O)[O-])c1	> 100 µM (inactive)	> 100 µM (inactive)	> 100 µM (inactive)	> 100 µM (inactive)	> 100 µM (inactive)	> 100 µM (inactive)	> 100 µM (inactive)	> 100 µM (inactive)	> 100 µM (inactive)	> 100 µM (inactive)	> 100 µM (inactive)	94.2 µM (inactive)	> 100 µM (inactive)	> 100 µM (inactive)	> 100 µM (inactive)	> 100 µM (inactive)	> 100 µM (inactive)		
CC(C)c1cccc(C(C)C)c1NC(=O)C(=O)C1CCC2=C(Sc3ccccc3N2)C1=O (configuration not stated)	74.1 µM (inactive)	95.9 µM (inactive)	> 100 µM (inactive)	80.5 µM (inactive)	> 100 µM (inactive)	56.2 µM (inactive)	65.2 µM (inactive)	24 µM (inactive)	> 100 µM (inactive)	> 100 µM (inactive)	> 100 µM (inactive)	43.7 µM (inactive)	> 100 µM (inactive)	29.4 µM (inactive)	24.4 µM (inactive)	> 100 µM (inactive)	31.6 µM (inactive)		
COC(=O)c1nc(-c2ccc3c(n2)C(=O)C(=N)C(OC)=C3O)c(N)c(-c2ccc(OC)c(OC)c2O)c1C	0.357 µM (active)	1.66 µM (inactive)	0.29 µM (active)	0.449 µM (active)	0.729 µM (active)	0.413 µM (active)		2.56 µM (inactive)	1.47 µM (inactive)	0.769 µM (active)	1.61 µM (inactive)	2.04 µM (inactive)	0.189 µM (active)	0.324 µM (active)	1.84 µM (inactive)	2.57 µM (inactive)	0.217 µM (active)		0.153 µM (active)
COc1ccc(C2C3CCCC(C3=O)C(c3ccc(OC)cc3)N2N=O)cc1 (configuration not stated)	25.2 µM (inactive)	21.7 µM (inactive)	28.6 µM (inactive)	20.7 µM (inactive)	56.1 µM (inactive)	17.7 µM (inactive)		26.1 µM (inactive)	20.5 µM (inactive)	48.5 µM (inactive)	15.2 µM (inactive)	25.2 µM (inactive)	34.7 µM (inactive)	23.3 µM (inactive)	20.1 µM (inactive)	56.9 µM (inactive)	19.5 µM (inactive)		18.8 µM (inactive)
CCCSCC(P(=O)(O)O)P(=O)(O)O.NC1CCCCC1	> 100 µM (inactive)	> 100 µM (inactive)	> 100 µM (inactive)	> 100 µM (inactive)	> 100 µM (inactive)	> 100 µM (inactive)		> 100 µM (inactive)	> 100 µM (inactive)	> 100 µM (inactive)	8.59 µM (inactive)	> 100 µM (inactive)	> 100 µM (inactive)	> 100 µM (inactive)	> 100 µM (inactive)	> 100 µM (inactive)	> 100 µM (inactive)		> 100 µM (inactive)
COc1cccc2c1C(=O)c1c(O)c3c(c(O)c1C2=O)C[C@@](O)(C(C)=O)CC3S(=O)(=O)O (some centres not stated)	> 100 µM (inactive)	> 100 µM (inactive)	> 100 µM (inactive)	> 100 µM (inactive)	> 100 µM (inactive)	> 100 µM (inactive)	> 100 µM (inactive)	> 100 µM (inactive)	> 100 µM (inactive)	> 100 µM (inactive)	> 100 µM (inactive)	> 100 µM (inactive)	> 100 µM (inactive)	> 100 µM (inactive)	> 100 µM (inactive)	> 100 µM (inactive)	> 100 µM (inactive)		
